One assay has as its system K. pneumoniae ATCC 13883. Kind of assay: Broth dilution MIC, K. pneumoniae ATCC 13883. The class given is cell-based. As to conditions: Klebsiella pneumoniae. (In general: Broth dilution looks for growth in wells or tubes with falling amounts of substance.)
Assay [1] deals with S. aureus ATCC 33591 (MRSA). Nature of the assay: Broth dilution MIC, S. aureus ATCC 33591. It counts as cell-based. As to conditions: Staphylococcus aureus.
The subject of assay [2] is S. pneumoniae ATCC 700674 (PRSP). Kind of assay: Broth dilution MIC, S. pneumoniae ATCC 700674. The class given is cell-based. The note with it: Streptococcus pneumoniae.
The next assay has as its system E. coli ECM 1694. Kind of assay: Broth dilution MIC, E. coli ECM 1694. The class given is cell-based. As to conditions: Escherichia coli.
For another assay, the system named is E. coli ATCC 25922. Nature of the assay: Broth dilution MIC, E. coli ATCC 25922. It counts as cell-based. The note with it: Escherichia coli.
In assay [3] the test system is E. faecalis ATCC 29212 (VRE). Nature of the assay: Broth dilution MIC, E. faecalis ATCC 29212. It counts as cell-based.
For assay [4], the system named is S. pneumoniae ATCC 6301 (PSSP). Kind of assay: Broth dilution MIC, S. pneumoniae ATCC 6301. The class given is cell-based. As to conditions: Streptococcus pneumoniae.
For the next assay, the system named is M. smegmatis (mc2155). Nature of the assay: Disk diffusion assay, zone of inhibition, M. smegmatis. It counts as cell-based. The note with it: disk diffusion zone of inhibition. On the technique in general: In agar diffusion tests the substance spreads into inoculated agar from a disc or well.
For the next assay, the system named is P. aeruginosa ATCC 9027. Kind of assay: Broth dilution MIC, P. aeruginosa ATCC 9027. It counts as cell-based. The note with it: Pseudomonas aeruginosa.
The subject of assay [5] is S. aureus ATCC 29213 (MSSA). Nature of the assay: Broth dilution MIC, S. aureus ATCC 29213. The class given is cell-based. As to conditions: Staphylococcus aureus.
For another assay, the system named is E. faecium CT-26. Nature of the assay: Broth dilution MIC, E. faecium CT-26. It counts as cell-based. As to conditions: Enterococcus faecium.
The next assay deals with MRSA. Nature of the assay: Disk diffusion assay, zone of inhibition, MRSA. As to conditions: disk diffusion zone of inhibition. It counts as cell-based, Staphylococcus aureus.
Another assay concerns S. aureus BAA-39 (MDR). Nature of the assay: Broth dilution MIC, S. aureus BAA-39. The class given is cell-based. The note with it: Staphylococcus aureus, BAA39.
The next assay deals with K. pneumoniae ATCC 51503. Nature of the assay: Broth dilution MIC, K. pneumoniae ATCC 51503. The note with it: Klebsiella pneumoniae. The class given is cell-based.
The subject of assay [6] is E. faecium ATCC 700221 (VRE). Kind of assay: Broth dilution MIC, E. faecium ATCC 700221. The class given is cell-based.
The next assay relates to C. albicans ATCC 14053. Nature of the assay: Broth dilution MIC, C. albicans ATCC 14053. It counts as cell-based. As to conditions: Candida albicans, ATCC14053; Table 1; range 64 down to 0.12 μg/ml. The protocol: In vitro Anti-bacterial & Anti-fungal Activity Assay: All test compounds were prepared as 6.4 mg/ml stock solutions in DMSO and further diluted according to the NCCLS M7-A6 (Page 5) document with sterile water or appropriate diluent. A working stock of 256 μg/ml was used to do 1:2 serial dilutions in 96-well plates. […] The inoculums were prepared by making a direct sterile water suspension of isolated colonies from 18 to 24 hr agar plates for all organisms (Mueller Hinton, Blood Agar or SDA plates). Each bacterial suspension was adjusted to read between 0.09 and 0.11 absorbance at 620 nm. […] These were further diluted 1/100 in appropriate broth for inoculating the 96-well plates. The C. albicans suspension was adjusted to read between 70 and 75% Transmittance at 530 nm and then diluted 1/500 in RPMI+MOPS broth. All aerobic bacterial and fungal plates were incubated for 18 hrs. at 35° C. […] Plates were read using a Beckman Automated Plate Reader at 650 nm. Readings were confirmed by visual examination of plates. (See Table 1, Table 2, Table 3, and Table 4). […] It is important to note that positive results against C. albicans are often indicative of broad spectrum antifungal activity, while negative results are not necessarily conclusory of a lack of activity against other fungus.

The next assay concerns E. coli (ATCC 25922). Nature of the assay: Septicemia survival model in neutropenic CD1 mice, E. coli. The class given is in vivo. As to conditions: 10 mg/kg BID SC.
[7] abbreviates: ATCC13883, Table 1, range 64 down to 0.12 μg/ml, read-out: MIC K. pneumoniae ATCC 13883.
Where [8] appears, read: ATCC13883, Table 2, broth dilution MIC in ug/ml, read-out: MIC K pneumonia ATCC 13883.
Where [9] appears, read: Table 1, range 64 down to 0.12 μg/ml, read-out: MIC S. aureus ATCC 33591.
The mark [10] stands for this setting: Table 2, broth dilution MIC in ug/ml, read-out: MIC S aureus ATCC 33591 MRSA.
Where [11] appears, read: Table 1, range 64 down to 0.12 μg/ml, read-out: MIC S. pneumoniae ATCC 700674.
[12] abbreviates: Table 2, broth dilution MIC in ug/ml, read-out: MIC S pneumonia ATCC 700674 PRSP.
[13] abbreviates: ECM1694, Table 1, range 64 down to 0.12 μg/ml, read-out: MIC E. coli ECM 1694.
Setting [14] is: ECM1694, Table 2, broth dilution MIC in ug/ml, read-out: MIC E. coli ECM 1693.
The mark [15] stands for this setting: ATCC 25921 / ATCC 25922, Table 2, broth dilution MIC in ug/ml, read-out: MIC E. coli ATCC 25921.
Setting [16] is: ATCC25922, Table 1, range 64 down to 0.12 μg/ml, read-out: MIC E. coli ATCC 25922.
Setting [17] is: Enterococcus faecalis, Table 1, range 64 down to 0.12 μg/ml, read-out: MIC E. faecalis ATCC 29212.
Setting [18] is: Table 2, broth dilution MIC in ug/ml, read-out: MIC E faecalis ATCC 29212 VRE.
[19] abbreviates: ATCC6301, Table 1, range 64 down to 0.12 μg/ml, read-out: MIC S. pneumoniae ATCC 6301.
Setting [20] is: ATCC6301, Table 2, broth dilution MIC in ug/ml, read-out: MIC S pneumonia ATCC 6301 PSSP.
Where [21] appears, read: ATCC 9026 / ATCC 9027, Table 2, broth dilution MIC in ug/ml, read-out: MIC P aeruginosa ATCC 9026.
The mark [22] stands for this setting: ATCC9027, Table 1, range 64 down to 0.12 μg/ml, read-out: MIC P. aeruginosa ATCC 9027.
[23] abbreviates: Table 1, range 64 down to 0.12 μg/ml, read-out: MIC S. aureus ATCC 29213.
The mark [24] stands for this setting: Table 2, broth dilution MIC in ug/ml, read-out: MIC S aureus ATCC 29213 MSSA.
Where [25] appears, read: CT26, Table 1, range 64 down to 0.12 μg/ml, read-out: MIC E. faecium CT-26.
Where [26] appears, read: CT26, Table 2, broth dilution MIC in ug/ml, read-out: MIC E faecium CT-25.
Setting [27] is: Table 1, range 64 down to 0.12 μg/ml, read-out: MIC S. aureus BAA-39.
The mark [28] stands for this setting: Table 2, broth dilution MIC in ug/ml, read-out: MIC S aureus BAA-39 MDR.
[29] abbreviates: ATCC51503, Table 1, range 64 down to 0.12 μg/ml, read-out: MIC K. pneumoniae ATCC 51503.
[30] abbreviates: ATCC51503, Table 2, broth dilution MIC in ug/ml, read-out: MIC K pneumonia ATCC 51503.
The mark [31] stands for this setting: Enterococcus faecium, Table 1, range 64 down to 0.12 μg/ml, read-out: MIC E. faecium ATCC 700221.
Setting [32] is: Table 2, broth dilution MIC in ug/ml, read-out: MIC E faecium ATCC 700221 VRE.

In brackets after ≈: the same amount, converted by molar mass. Where two headings read alike, the source gives them in different places. Some results are limits rather than exact numbers.

The term MIC denotes the lowest concentration that inhibits growth of the organism. Regarding `Nc1ccc(-c2ccc3cc(-c4ccc(Nc5ccc(C6=NCCN6)cc5)cc4)[nH]c3c2)cc1` [SKI-20], the minimal inhibitory concentration (MIC) was over 64 µg/mL with K. pneumoniae ATCC 13883 (setting [7]); 64 µg/mL (≈ 144 µM) with K. pneumoniae ATCC 13883 (setting [8]); over 64 µg/mL in [1] (setting [9]); 64 µg/mL (≈ 144 µM) in assay [1] (setting [10]); 4 µg/mL (≈ 9.02 µM) in assay [2] (setting [11]); 4 µg/mL (≈ 9.02 µM) in assay [2] (setting [12]). Also, the minimal inhibitory concentration (MIC) in the assay with E. coli ECM 1694 (setting [13]) is 64 µg/mL (≈ 144 µM); with E. coli ECM 1694 (setting [14]) it was 64 µg/mL (≈ 144 µM); with E. coli ATCC 25922 (setting [15]) it was 64 µg/mL (≈ 144 µM); with E. coli ATCC 25922 (setting [16]) it was over 64 µg/mL; in assay [3] (setting [17]), 32 µg/mL (≈ 72.1 µM); in assay [3] (setting [18]) it was 32 µg/mL (≈ 72.1 µM). For the same compound, the MIC was 2 µg/mL (≈ 4.51 µM) in [4] (setting [19]); 2 µg/mL (≈ 4.51 µM) in assay [4] (setting [20]); 64 µg/mL (≈ 144 µM) with P. aeruginosa ATCC 9027 (setting [21]); over 64 µg/mL with P. aeruginosa ATCC 9027 (setting [22]); over 64 µg/mL in assay [5] (setting [23]); 64 µg/mL (≈ 144 µM) in [5] (setting [24]). The MIC in the assay on E. faecium CT-26 (setting [25]) was 8 µg/mL (≈ 18 µM); in the assay on E. faecium CT-26 (setting [26]), 8 µg/mL (≈ 18 µM); in the assay with S. aureus BAA-39 (MDR) (setting [27]), over 64 µg/mL; in the assay on S. aureus BAA-39 (MDR) (setting [28]) it was 64 µg/mL (≈ 144 µM); in the assay on K. pneumoniae ATCC 51503 (setting [29]), over 64 µg/mL; in the assay with K. pneumoniae ATCC 51503 (setting [30]) it was 64 µg/mL (≈ 144 µM). The MIC was 16 µg/mL (≈ 36.1 µM) in assay [6] (setting [31]), 16 µg/mL (≈ 36.1 µM) in assay [6] (setting [32]) and over 64 µg/mL with C. albicans ATCC 14053. For the same compound, the “Zone Size M. smegmatis” value in the assay on M. smegmatis (mc2155) is recorded as 8 mm. The “Zone Size MRSA” value in the assay with MRSA stood at 9 mm.

Consider Gentamicin [reference compound], for which, in the assay with E. coli (ATCC 25922), the “Percent Survival Day 1” value was 100%, the “Percent Survival Day 2” value is 100%, the “Percent Survival Day 3” value turned out to be 80% and the “Percent Survival Day 4” value came to 60%. Besides, in the assay with E. coli (ATCC 25922), the “Percent Survival Day 5” value turned out to be 60%, the “Percent Survival Day 6” value is reported as 60% and the “Percent Survival Day 7” value was determined as 60%.

Take `c1cc(-c2cc3ccc(C4=NCCN4)cc3[nH]2)ccc1NC1CCNCC1` [SKI-6]: the MIC with K. pneumoniae ATCC 13883 (setting [7]) was over 64 µg/mL; in the assay with K. pneumoniae ATCC 13883 (setting [8]), 64 µg/mL (≈ 178 µM); in [1] (setting [9]) it was 8 µg/mL (≈ 22.3 µM); in assay [1] (setting [10]) it was 8 µg/mL (≈ 22.3 µM); in [2] (setting [11]) it was over 64 µg/mL; in assay [2] (setting [12]) it was 64 µg/mL (≈ 178 µM). The MIC was 4 µg/mL (≈ 11.1 µM) in the assay with E. coli ECM 1694 (setting [13]); 4 µg/mL (≈ 11.1 µM) in the assay with E. coli ECM 1694 (setting [14]); 32 µg/mL (≈ 89 µM) with E. coli ATCC 25922 (setting [15]); 32 µg/mL (≈ 89 µM) with E. coli ATCC 25922 (setting [16]); over 64 µg/mL in assay [3] (setting [17]); 64 µg/mL (≈ 178 µM) in assay [3] (setting [18]). Moreover, the MIC in assay [4] (setting [19]) is 32 µg/mL (≈ 89 µM); in assay [4] (setting [20]) it was 32 µg/mL (≈ 89 µM); in the assay with P. aeruginosa ATCC 9027 (setting [21]), 64 µg/mL (≈ 178 µM); in the assay on P. aeruginosa ATCC 9027 (setting [22]), over 64 µg/mL; in assay [5] (setting [23]), 8 µg/mL (≈ 22.3 µM); in assay [5] (setting [24]), 8 µg/mL (≈ 22.3 µM). Besides, the MIC was 64 µg/mL (≈ 178 µM) in the assay with E. faecium CT-26 (setting [25]); 64 µg/mL (≈ 178 µM) in the assay on E. faecium CT-26 (setting [26]); 8 µg/mL (≈ 22.3 µM) with S. aureus BAA-39 (MDR) (setting [27]); 8 µg/mL (≈ 22.3 µM) in the assay with S. aureus BAA-39 (MDR) (setting [28]); over 64 µg/mL with K. pneumoniae ATCC 51503 (setting [29]); 64 µg/mL (≈ 178 µM) with K. pneumoniae ATCC 51503 (setting [30]). The minimal inhibitory concentration (MIC) in assay [6] (setting [31]) is over 64 µg/mL; in [6] (setting [32]), 64 µg/mL (≈ 178 µM); against C. albicans ATCC 14053, over 64 µg/mL. Besides, in the assay with M. smegmatis (mc2155), the “Zone Size M. smegmatis” value amounted to 16.3 mm. The “Zone Size MRSA” value in the assay on MRSA was 15 mm.

For the origin of these results see patent publication US20150291565A1, “INDOLE COMPOUNDS AND THEIR USE AS ANTIMICROBIALS” (Memorial Sloan-Kettering Cancer Center, priority 2012, published 2015).
